In article PMC11035632, “Discovery of gefitinib-1,2,3-triazole derivatives against lung cancer via inducing apoptosis and inhibiting the colony formation” (Scientific Reports, 2024):

How the values were obtained:
H1299 cells [1] = test: DAPI staining for cell apoptosis; format: cell-based, human; conditions: H1299, 2, 4 and 8 μmol/L, 48 h
Experimental: In order to further verify the apoptotic activity induced by 7a and 7j in lung cancer cells, H1299 cells were treated with different concentrations of compounds 7a and 7j for 48 h, followed by DAPI staining. […] As the drug concentration increased, nuclear staining intensified, and even nuclear condensation and fragmentation phenomena were observed.
H1299 (1.5 × 10^4 ~ 2 × 10^4 /well) cells were seeded in 24-well plates for 24 h, and then treated with 7a or 7j at the concentrations of 2,4 and 8 μmol/L for 48 h., the cells were fixed for 30 min at room temperature in 4% paraformaldehyde and washed 3 times in PBS. Finally, every well was stained with DAPI (10 µg/mL, C0065, Solarbio) at room temperature for 30 min, and washed at least three times in PBS. The fluorescence microscope was used to observe the morphological changes of cell nuclei.

H1299 cells [2] = test: Transwell migration assay; format: cell-based, human; conditions: H1299, 2, 4 and 8 μmol/L, 24 h, vs normal control, p < 0.01
Experimental: Transwell chamber migration assay is another important method to assess cell migration ability. Tumor cells are seeded in the chamber, and the number of tumor cells that pass through the membrane is counted to evaluate the migration ability of tumor cells.
Transwell assay was used to determine the migration ability of H1299 cells. Cells were starved in serum-free RPMI 1640 medium for 24 h, then detached and resuspended in serum-free RPMI 1640 medium. 5 × 10^5 cells/mL were inoculated into the upper chamber of a 24-well Transwell plate (Corning Inc., United States), with a volume of 100 µl per well. Then, 100 µL serum-free medium containing 7a or 7j (2, 4 and 8 μmol/L) was added to the upper chamber and the lower chamber was filled with 700 µL medium containing 20% FBS. After incubation for 24 h, H1299 cells on the upper membrane of the transwell were wiped off. The migrated cells were treated with 4% paraformaldehyde for 20 min, stained with 0.1% crystal violet for 20 min and washed three times with PBS. The number of H1299 cells that migrated to the underside of the membrane was counted under the inverted fluorescence microscope. Three randomly selected areas from each transwell were photographed and calculated using Image J.

NCI-H1299 cells = test: CCK-8 assay for cell proliferation and cytotoxicity, NCI-H1299; format: cell-based; conditions: Homo sapiens, CCK-8, 48 h
Experimental: (§1) Three types of lung cells were seeded into 96-well plate at a density of 5 × 10^3 cells per well at logarithmic growth phase and cultured in 37 °C. […] After that, cell viability was determined according to the instruction of the CCK-8 assay. Next, 10 μL of CCK-8 solution was added to each well of the plate and incubate the plate for 1–4 h in the incubator. The absorbance was measured at 450 nm using a microplate reader (Bio-Tek). The percentage of viable cells was measured using the following formula where three independent experiments were performed: [(A450 sample − A450blank)/(A450 control − A450blank)] × 100%.

H1299 cells [3] = test: Flow cytometry detection of apoptosis (Annexin V-EGFP/PI); format: cell-based, human; conditions: 48 h
Experimental: H1299 cells were treated with different concentrations of 7a and 7j for 48 h. The cells were stained with Annexin-V and PI, and the proportion of apoptotic cells was detected using flow cytometry.
H1299 cells were seeded in a 6-well plate at a density of 1 × 10^5 cells/well and incubated for 24 h. On the following day, the medium was replaced with fresh medium containing 7a or 7j (2, 4 and 8 μmol/L) and cells were incubated for an additional 48 h. Cell apoptosis was detected using Annexin V-EGFP/PI apoptosis detection Kit by flow cytometry. Subsequently, 5 µl of […] Annexin V and 10 µl of PI was added to the cell suspension, gently vortexed, and incubated at room temperature in the dark for 20 min, then single-cell suspension was prepared followed by flow cytometry (BD Accuri™ C6 Plus).

H1299 cells [4] = test: Colony formation assay; format: cell-based, human; conditions: 7 days
Text: The colony formation assay is an important method for evaluating the ability of adherent cells to proliferate and form colonies on a plate, and it is widely used to assess cell proliferation. We also employed the colony formation assay to further confirm that compounds 7a and 7j can inhibit the proliferation of lung cancer cells, as shown in Fig. 5. After treating lung cancer cells with low, medium, and high concentrations (1, 2, 4 μmol/L) of compounds for 7 days, the number of cell colonies was counted to analyze the proliferation inhibition rate.
H1299 cells were seeded in six-well plates at a density of 500 cells per well and treated with 7a or 7j (1, 2 and 4 μmol/L) for 7 days. Then, cells were per-fixed with 4% paraformaldehyde for 30 min, stained with 0.1% Crystal violet for 15 min, and then washed with pure water. Taking a picture after the plates were air-dry. The clone formations number was counted with Image J.

H1299 cells [5] = test: Wound healing assay; format: cell-based, human; conditions: 24 h
Experimental: H1299 cells were seeded in a 6-well plate, When the cell confluency reached 95%, a wound line was scratched using a 200 µl pipette tip, and then washed three times, fresh medium containing 7a or 7j (2, 4 and 8 μmol/L) was added, and the plate was incubated at 37 °C with 5% CO2. All the images were captured at 0 h and 24 h under an inverted microscope, and the quantification of scratches was analysed using Image J.

NCI-H1437 cells = test: CCK-8 assay for cell proliferation and cytotoxicity, NCI-H1437; format: cell-based; conditions: Homo sapiens, CCK-8, 48 h, read-out: IC50 1437
Experimental: as §1

[6] = tested on: Bcl-2, caspase9, Cleaved-Caspase3, Cleaved-PARP, MMP9 in H1299 cells; test: Western blot of apoptosis- and migration-related proteins; format: cell-based, human; conditions: H1299, 4, 8 or 16 μM, 48 h
Text: We conducted an in-depth investigation into the mechanism of apoptosis induced by compounds 7a and 7j. The Bcl-2 protein family is located upstream of the apoptosis signaling pathway. Bcl-2 proteins play an anti-apoptotic role by inhibiting the release of cytochrome C (cyt-c) from mitochondria. Previous literature reports that many anticancer drugs induce apoptosis by downregulating Bcl-2 expression. During apoptosis, the expression of Bcl-2 is inhibited, cyt-c is released, and it binds with the apoptotic protease activation factor to form the apoptosome. This triggers a cascade reaction of Caspase family proteins, with apoptosome promoting the activation of Caspase9. Activated Caspase9 then activates Caspase3, forming the Caspase3 cleavage body, which further activates downstream PARP protein, ultimately promoting cell apoptosis. […] After treating H1299 cells with different concentrations of compounds for 48 h, cell proteins were extracted, and western blot was used to detect the expression changes of apoptosis-related proteins.
Firstly, H1299 cells were treated with different concentrations concentrations of 7a and 7j at 4, 8 and 16 μmol/L for 48 h, cells were harvested using RIPA lysate (R0010, Solarbio) and centrifuged at 12,000 rpm for 15 min at 4 °C, and then the concentration of total protein was measured and taken from the supernatant. Protein was separated by 12% SDS–polyacrylamide gel electrophoresis and transferred to nitrocellulose filter membrane. after blocking in 5% milk for 2 h, the membranes were incubated with specific primary antibody at 4 °C overnight. Next day, NC membranes were incubated for 1 h at room temperature with appropriate secondary antibodies, and then Protein bands was visualizing by chemiluminescence detection (ECL kit, Genview).

A549 cells = test: CCK-8 assay for cell proliferation and cytotoxicity, A549; format: cell-based; conditions: Homo sapiens, CCK-8, 48 h
Experimental: A549 cells were cultured in a humidified incubator at 37 °C with 5% CO2 in Ham’s F-12 K (PM150910, Procell) supplemented with 10% FBS and 1% Penicillin Streptomycin.
as §1

L02 cells = test: Cytotoxicity / survival rate in normal hepatocytes L02; format: cell-based; conditions: for Survival rate %, 48 h: L02 cells

Q: Which “apoptotic morphology by DAPI staining” value (H1299 cells [1]) does the source give for `COc1cc2ncnc(Nc3cccc(-c4cn(Cc5cccc(Cl)c5)nn4)c3)c2cc1OCCCN1CCOCC1` [Compound 7j] here?
A: Its value is “exhibited typical apoptotic features”.

Q: And the “number of cells passing through the membrane to the lower surface of the chamber” value (H1299 cells [2])?
A: The value was “significantly decreased”.

Q: And the IC50 (NCI-H1299 cells)?
A: The IC50 was 3.84 ± 0.22 µM.

Q: What about the “total apoptotic cell proportion” value (H1299 cells [3]; H1299, 2 μmol/L) of the same compound?
A: Its value is 14.97 ± 1.54%.

Q: And the “total apoptotic cell proportion” value (H1299 cells [3]; H1299, 4 μmol/L)?
A: The value was 27.07 ± 2.77%.

Q: And the “total apoptotic cell proportion” value (H1299 cells [3]; H1299, 8 μmol/L)?
A: The value was 65.77 ± 2.93%.

Q: What about the “formation of H1299 cell colonies” value (H1299 cells [4]; 1 μmol/L) of the same compound?
A: The value was “markedly inhibit”.

Q: And the colony formation (H1299 cells [4]; H1299, 4 μmol/L)?
A: The colony formation was “almost completely suppressed”.

Q: What about the migration closure rate (H1299 cells [5]; H1299, 2 μmol/L) of the same compound?
A: The migration closure rate was 72.57 ± 3.43%.

Q: And the migration closure rate (H1299 cells [5]; H1299, 4 μmol/L)?
A: Its migration closure rate is 60.91 ± 8.48%.

Q: And the migration closure rate (H1299 cells [5]; H1299, 8 μmol/L)?
A: Its migration closure rate is 48.88 ± 3.23%.

Q: And the IC50 (NCI-H1437 cells)?
A: The IC50 was 1.69 ± 0.25 µM.

Q: What about the “Bcl-2 protein expression level” value [6] of the same compound?
A: The value was “decrease”.

Q: And the “Cleaved-Caspase3 protein expression level” value [6]?
A: The value was “increased”.

Q: And the “Cleaved-PARP protein expression level” value [6]?
A: The value was “increased”.

Q: And the MMP9 protein expression [6]?
A: Its MMP9 protein expression is “downregulated”.

Q: And the “caspase9 protein expression level” value [6]?
A: Its value is “decrease”.

Q: And the IC50 (A549 cells)?
A: Its IC50 is 3.86 ± 0.38 µM.

Q: What about the IC50 (L02 cells; Homo sapiens, normal hepatocytes L02) of the same compound?
A: The IC50 was 17.7 ± 0.52 µM.

Q: What about the “Survival rate %, 48 h” value (L02 cells; 2 μM) of the same compound?
A: Its value is 94.49 ± 4.11%.

Q: What about the “Survival rate %, 48 h” value (L02 cells; 4 μM) of the same compound?
A: The value was 89.12 ± 5.50%.

Q: And the “Survival rate %, 48 h” value (L02 cells; 8 μM)?
A: The value was 75.59 ± 2.65%.

Q: What about the “Survival rate %, 48 h” value (L02 cells; 16 μM) of the same compound?
A: Its value is 59.14 ± 1.54%.

Q: What about the “Survival rate %, 48 h” value (L02 cells; 32 μM) of the same compound?
A: The value was 24.48 ± 3.68%.
